Source: PubChem BioAssay (NCI)
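Growth conditions: 96-well plates. Treatment: test compound, 48 hours, 5 concentrations. Analysis: linear interpolation between bracketing concentrations; unreached endpoints set to highest concentration. At the GI50, growth is halved. The concentration for full growth arrest is given as TGI.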

Tests used:
Test in all cases: DTP human tumour cell line panel, 48 h
786-0 renal = system: 786-0 renal
A498 renal = system: A498 renal
A549 NSCLC = system: A549 NSCLC
ACHN renal = system: ACHN renal
BT-549 breast = system: BT-549 breast
CAKI-1 renal = system: CAKI-1 renal
CCRF-CEM leukemia = system: CCRF-CEM leukemia
COLO 205 colon = system: COLO 205 colon
DU-145 prostate = system: DU-145 prostate
EKVX NSCLC = system: EKVX NSCLC
HCC-2998 colon = system: HCC-2998 colon
HCT-116 colon = system: HCT-116 colon
HCT-15 colon = system: HCT-15 colon
HL-60(TB) leukemia = system: HL-60(TB) leukemia
HOP-62 NSCLC = system: HOP-62 NSCLC
HOP-92 NSCLC = system: HOP-92 NSCLC
HS 578T breast = system: HS 578T breast
HT29 colon = system: HT29 colon
IGROV1 ovarian = system: IGROV1 ovarian
K-562 leukemia = system: K-562 leukemia
KM12 colon = system: KM12 colon
LOX IMVI melanoma = system: LOX IMVI melanoma
M14 melanoma = system: M14 melanoma
MALME-3M melanoma = system: MALME-3M melanoma
MCF7 breast = system: MCF7 breast
MDA-MB-435 = system: MDA-MB-435
MDA-MB-468 breast = system: MDA-MB-468 breast
MOLT-4 leukemia = system: MOLT-4 leukemia
NCI-H226 lung = system: NCI-H226 lung
NCI-H23 lung = system: NCI-H23 lung
NCI-H460 lung = system: NCI-H460 lung
NCI-H522 lung = system: NCI-H522 lung
NCI/ADR-RES ovarian = system: NCI/ADR-RES ovarian
OVCAR-3 ovarian = system: OVCAR-3 ovarian
OVCAR-4 ovarian = system: OVCAR-4 ovarian
OVCAR-5 ovarian = system: OVCAR-5 ovarian
OVCAR-8 ovarian = system: OVCAR-8 ovarian
PC-3 prostate = system: PC-3 prostate
RPMI-8226 leukemia = system: RPMI-8226 leukemia
RXF 393 renal = system: RXF 393 renal
SF-268 CNS = system: SF-268 CNS
SF-295 CNS = system: SF-295 CNS
SF-539 CNS = system: SF-539 CNS
SK-MEL-28 melanoma = system: SK-MEL-28 melanoma
SK-MEL-5 melanoma = system: SK-MEL-5 melanoma
SK-OV-3 ovarian = system: SK-OV-3 ovarian
SN12C renal = system: SN12C renal
SNB-19 CNS = system: SNB-19 CNS
SR leukemia = system: SR leukemia
SW-620 colon = system: SW-620 colon
T-47D breast = system: T-47D breast
TK-10 renal = system: TK-10 renal
U251 CNS = system: U251 CNS
UACC-257 melanoma = system: UACC-257 melanoma
UACC-62 melanoma = system: UACC-62 melanoma

CC[C@]12C=CCN3CC[C@@]4(c5ccc(OC)cc5N(C)[C@H]4[C@@](O)(C(=O)OC)[C@@H]1OC(=O)CCC[P+](c1ccc(F)cc1)(c1ccc(F)cc1)c1ccc(F)cc1)[C@@H]32
GI50 (786-0 renal): > 48.5 µM
TGI (786-0 renal): > 48.5 µM
GI50 (A498 renal): > 48.5 µM
TGI (A498 renal): > 48.5 µM
GI50 (A549 NSCLC): 21.2 µM
TGI (A549 NSCLC): > 48.5 µM
GI50 (ACHN renal): > 48.5 µM
TGI (ACHN renal): > 48.5 µM
GI50 (BT-549 breast): 8.13 µM
TGI (BT-549 breast): 26.5 µM
GI50 (CAKI-1 renal): > 48.5 µM
TGI (CAKI-1 renal): > 48.5 µM
GI50 (CCRF-CEM leukemia): 12.7 µM
TGI (CCRF-CEM leukemia): 37.4 µM
GI50 (COLO 205 colon): 4.98 µM
TGI (COLO 205 colon): 11.1 µM
GI50 (DU-145 prostate): 23.7 µM
TGI (DU-145 prostate): > 48.5 µM
GI50 (EKVX NSCLC): 19.4 µM
TGI (EKVX NSCLC): > 48.5 µM
GI50 (HCC-2998 colon): 9.53 µM
TGI (HCC-2998 colon): 30 µM
GI50 (HCT-116 colon): 14.8 µM
TGI (HCT-116 colon): > 48.5 µM
GI50 (HCT-15 colon): > 48.5 µM
TGI (HCT-15 colon): > 48.5 µM
GI50 (HL-60(TB) leukemia): 1.77 µM
TGI (HL-60(TB) leukemia): 7.82 µM
GI50 (HOP-62 NSCLC): 20.5 µM
TGI (HOP-62 NSCLC): > 48.5 µM
GI50 (HOP-92 NSCLC): 5.44 µM
TGI (HOP-92 NSCLC): 19.9 µM
GI50 (HS 578T breast): 11.8 µM
TGI (HS 578T breast): 42.4 µM
GI50 (HT29 colon): 12.5 µM
TGI (HT29 colon): > 48.5 µM
GI50 (IGROV1 ovarian): 7.09 µM
TGI (IGROV1 ovarian): 18.2 µM
GI50 (K-562 leukemia): 9.83 µM
TGI (K-562 leukemia): > 48.5 µM
GI50 (KM12 colon): 8.96 µM
TGI (KM12 colon): 20.6 µM
GI50 (LOX IMVI melanoma): 16.6 µM
TGI (LOX IMVI melanoma): > 48.5 µM
GI50 (M14 melanoma): 9.1 µM
TGI (M14 melanoma): 28.9 µM
GI50 (MALME-3M melanoma): 6.85 µM
TGI (MALME-3M melanoma): 14 µM
GI50 (MCF7 breast): 8.26 µM
TGI (MCF7 breast): 30.8 µM
GI50 (MDA-MB-435): 8.14 µM
TGI (MDA-MB-435): 18.5 µM
GI50 (MDA-MB-468 breast): 1.5 µM
TGI (MDA-MB-468 breast): 6.3 µM
GI50 (MOLT-4 leukemia): 9.69 µM
TGI (MOLT-4 leukemia): > 48.5 µM
GI50 (NCI-H226 lung): 24.2 µM
TGI (NCI-H226 lung): > 48.5 µM
GI50 (NCI-H23 lung): 15.8 µM
TGI (NCI-H23 lung): > 48.5 µM
GI50 (NCI-H460 lung): 17 µM
TGI (NCI-H460 lung): > 48.5 µM
GI50 (NCI-H522 lung): 3.88 µM
TGI (NCI-H522 lung): 32 µM
GI50 (NCI/ADR-RES ovarian): > 48.5 µM
TGI (NCI/ADR-RES ovarian): > 48.5 µM
GI50 (OVCAR-3 ovarian): 6.47 µM
TGI (OVCAR-3 ovarian): 40.7 µM
GI50 (OVCAR-4 ovarian): 16.2 µM
TGI (OVCAR-4 ovarian): > 48.5 µM
GI50 (OVCAR-5 ovarian): 20.8 µM
TGI (OVCAR-5 ovarian): > 48.5 µM
GI50 (OVCAR-8 ovarian): 18.4 µM
TGI (OVCAR-8 ovarian): > 48.5 µM
GI50 (PC-3 prostate): 12.6 µM
TGI (PC-3 prostate): > 48.5 µM
GI50 (RPMI-8226 leukemia): 2.05 µM
TGI (RPMI-8226 leukemia): 9.33 µM
GI50 (RXF 393 renal): 8.46 µM
TGI (RXF 393 renal): 30.7 µM
GI50 (SF-268 CNS): 15 µM
TGI (SF-268 CNS): > 48.5 µM
GI50 (SF-295 CNS): > 48.5 µM
TGI (SF-295 CNS): > 48.5 µM
GI50 (SF-539 CNS): 16.8 µM
TGI (SF-539 CNS): > 48.5 µM
GI50 (SK-MEL-28 melanoma): 5.34 µM
TGI (SK-MEL-28 melanoma): 11.6 µM
GI50 (SK-MEL-5 melanoma): 8.26 µM
TGI (SK-MEL-5 melanoma): 15.7 µM
GI50 (SK-OV-3 ovarian): 15.8 µM
TGI (SK-OV-3 ovarian): > 48.5 µM
GI50 (SN12C renal): 14.8 µM
TGI (SN12C renal): > 48.5 µM
GI50 (SNB-19 CNS): 11.4 µM
TGI (SNB-19 CNS): > 48.5 µM
GI50 (SR leukemia): 7.45 µM
TGI (SR leukemia): 17.3 µM
GI50 (SW-620 colon): 18.3 µM
TGI (SW-620 colon): > 48.5 µM
GI50 (T-47D breast): 10.5 µM
TGI (T-47D breast): > 48.5 µM
GI50 (TK-10 renal): 22.2 µM
TGI (TK-10 renal): > 48.5 µM
GI50 (U251 CNS): 9.36 µM
TGI (U251 CNS): > 48.5 µM
GI50 (UACC-257 melanoma): 4.67 µM
TGI (UACC-257 melanoma): 12 µM
GI50 (UACC-62 melanoma): 6.05 µM
TGI (UACC-62 melanoma): 12.3 µM
